Legend:
carboxypeptidase B = target: T1, carboxypeptidase B (Sus scrofa, UniProt P09955); assay: anti-carboxypeptidase B activity (hippuryl-L-lysine substrate, cyanuric chloride colour reaction); format: biochemical; conditions: purified carboxypeptidase B from the pancreas of pigs, 37°C, pH 8.0; read-out: 50 % inhibition (IC50) against carboxypeptidase B (converted)
T1 construct: purified carboxypeptidase B (a product of Boehringer-Mannheim obtained from the pancreas of pigs); purchased Boehringer-Mannheim; host or cells: pig pancreas
T1 sequence (P09955 111-416): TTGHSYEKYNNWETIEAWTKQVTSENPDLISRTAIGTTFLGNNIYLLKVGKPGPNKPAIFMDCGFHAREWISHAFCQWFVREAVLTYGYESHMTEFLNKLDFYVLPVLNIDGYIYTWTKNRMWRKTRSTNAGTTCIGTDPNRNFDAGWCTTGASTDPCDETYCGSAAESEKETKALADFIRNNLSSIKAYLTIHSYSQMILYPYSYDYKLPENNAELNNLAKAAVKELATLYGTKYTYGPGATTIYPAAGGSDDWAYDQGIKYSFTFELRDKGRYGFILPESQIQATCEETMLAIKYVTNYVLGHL
Procedure: Histargin in the cultivation and purification steps was traced by measuring anti-carboxypeptidase B activity. Anti-carboxypeptidase B activity was measured in the following way according to an improved method based on the angiotensin I transferase activity determination method described in M.Hayakari et al., "Analytical Biochemistry," 84, 361-369, 1978.
A mixed solution was prepared by adding 0.25 ml of 0.05M Tris-hydrochloric acid buffer solution (pH 8.0) and 0.15 ml of a solution containing a histargin sample to 0.05 ml of 0.05M hippuryl-L-lysine (a product of Peptide Institute). The mixed solution was heated for 3 minutes at 37°C, and 0.05 ml of an aqueous solution of 1 µg/ml of purified carboxypeptidase B (a product of Boehringer-Mannheim obtained from the pancreas of pigs) was added to the mixed solution. To the resulting mixture was added 0.03 ml of 1N sodium hydroxide to terminate the reaction. Fifteen minutes later, 2 ml of a 1 % methyl cellosolve solution of cyanuric chloride was added for a color reaction. After the mixture was allowed to stand for 15 minutes at room temperature, the absorbance (a) at 382 nm was measured. Separately, there was measured the blank absorbance (b) of the same reaction mixture except that the histargin sample was not contained. The percent inhibition against carboxypeptidase B was calculated from the equation [(b - a)/b] x 100.

Slc-CDF1 mice = assay: cell-mediated immunity: delayed-type hypersensitivity (D.T.H.) to sheep red blood cell, footpad swelling; format: in vivo; conditions: normal mice, 5, 0.5, 0,05 and 0.005 mg/kg once intraperitoneally; statement on Table 1 (image)
Procedure: This effect was investigated using as its index the degree of delayed- type hypersensitivity (D.T.H.) to sheep red blood cell (SRBC) injectd intravenously as an antigen (see J. Exp. Med. 139, 1529-1539, 1974).
A suspension of 10^5 SRBCs in 0.05 ml of physiological saline solution was injected intravenously into Slc-CDF1 mice (female, 9 weeks old). Simultaneously, histargin monohydrate in doses of 5, 0.5, 0,05 and 0.005 mg/kg was administerd once intraperitoneally as a solution dissolved in physiological saline solution.
Four days after admnistration, a suspension of 10^8 SRBCs in 0.05 ml of physiological saline solution was injected subcutaneously to the footpads to induce D.T.H. Twenty-four hours after the subcutaneous injection, footpad swellings (increases in the foot thicknesses) were measured with a caliper. The mean footpad swelling in control animals receiving SRBCs and physiological saline solution but without the test compound was designated as C, which was set at 100 %• The mean footpad swelling in animals treated with SRBCs, physiological saline solution, and the test compound was designated as T. The ratio of T to C was calculated to evaluate the effect of the test compound to potentiate cell-mediated immunity.

Wistar rats = assay: potentiation of morphine-induced analgesia, tail-flick technique in morphine-unresponsive rats; format: in vivo
enkephalinase B = enkephalinase B inhibition (tritiated methionine enkephalin hydrolysis); format: biochemical, crab-eating monkeys; conditions: concentration of 100 µg/ml, pH 7.0
Procedure: Enkephalinase B was obtained by homogenizing the brains of crab-eating monkeys, fractionating the homogenate, and purifying soluble fractions in accordance with the method of Hazato et al. (Biochemical and Biophysical Research Communications, Vol. 105, No. 2, pp. 470-475, 1982). The inhibitory activity of histargin against enkephalinase B was measured by the method of Hasato et al. described in the same reference.
Ten µmol of methionine enkephalin (Tyr-Gly-Gly-Phe-Met) having the terminal tyrosine partially tritiated was used as a substrate. This substrate was hydrolyzed with enkephalinase B in 100 µl of […] Tris-hydrochloric acid buffer solution (pH 7.0). The segment, Tyr-Gly, resulting from hydrolysis was separated using a column of Porapak Q (a product of Whatman), and determined quantitatively based on its radioactivity. The results obtained when the above reaction was carried out in the presence of histargin were compared with those obtained when the reaction was performed in the absence of histargin. Based on the comparison, the enkephalinase B-inhibiting activity of histragin was evaluated.

Compound: N=C(N)NCCCC(NCCNC(Cc1cnc[nH]1)C(=O)O)C(=O)O (centres unmarked) [histargin monohydrate, histargin]
- IC50 (carboxypeptidase B): 33.8 µM
- effect on cell-mediated immunity (D.T.H. footpad swelling, T/C) (Slc-CDF1 mice): potentiates cell-mediated immunity
- Potentiation of morphine-induced analgesia (%) (Wistar rats; 100 mg/kg intraperitoneally + 0.5 mg/kg morphine, morphine-unresponsive Wistar rats): 33.8%
- inhibition against enkephalinase B (enkephalinase B): 92%

Compound: CN1CC[C@]23c4c5ccc(O)c4O[C@H]2[C@@H](O)C=C[C@H]3[C@H]1C5 [Morphine]
- Potentiation of morphine-induced analgesia (%) (Wistar rats; morphine only 0.5 mg/kg (control group)): 0%
- Potentiation of morphine-induced analgesia (%) (Wistar rats; morphine only 2 mg/kg): 28.4%
- Potentiation of morphine-induced analgesia (%) (Wistar rats; morphine only 3 mg/kg): 35.1%

Compound: CC(C)C[C@H](NC(=O)[C@@H](O)[C@H](N)Cc1ccccc1)C(=O)O [Bestatin]
- Potentiation of morphine-induced analgesia (%) (Wistar rats; 250 mg/kg, for comparison, Wistar rats): 19.9%
